The term AUC(0-inf) denotes the area under the concentration-time curve extrapolated to infinity. Low readings indicate low exposure, high ones high exposure. A word on the AUC(0-t): it is the area under the concentration-time curve up to a stated or last time point. As usually defined, the Cmax is the maximum level reached in the sampled fluid or tissue. A word on the Tmax: it is the time at which the peak concentration occurs.

From patent US20250034165A1, “COMPOUND CONTAINING CYCLOALKYL OR HALOALKYL” (CHIA TAI TIANQING PHARMACEUTICAL GROUP CO., LTD., priority 2021, published 2025) come the findings set out here.

In series [1] the target is EGFR (d746-750 (d19)/T790M) (Homo sapiens (Human), UniProt P00533, DEL746-750/T790M). Put plainly: Inhibitory activity for EGFR (d746-750 (d19)/T790M) kinase. Format: biochemical. The conditions noted are these: ATP 5 μM. The essentials:
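Recombinant EGFR d746-750/T790M (0.003 ng/μL final) preincubated 30 min with compound (10 to 0.0024 nM, 4-fold steps), then 5 μM ATP and 0.1 μM ULight-poly GT added for 2 h at room temperature. EDTA stop, Eu-anti-phosphotyrosine TR-FRET read (665 nm); IC50 by four-parameter fit.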

The subject of series [2] is BAF3-EGFR (L858R/T790M/C797S) cells. Put plainly: Inhibition of proliferation of BAF3-EGFR (L858R/T790M/C797S) cells, CCK-8. The conditions noted are these: Ba/F3 EGFR, 72 h, read-out: BAF3(EGFR T790M L858R C797S) cell inhibitory activity IC50. Format: cell-based. The essentials: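 BaF3 EGFR L858R/T790M/C797S cells seeded at 1.5×10^5 cells/mL in RPMI + 10% FBS, 37 °C, compound added after overnight, duplicates. Viability by CCK-8; % inhibition vs untreated and blank, IC50 by four-parameter fit.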

In a further series the test system is NCI-H1975(L858R T790M). The experiment in a line: Nude mouse subcutaneous xenograft tumor model of NCI-H1975 cells. Format: in vivo, nude mice. The conditions noted are these: once a day, 14 days. The source says:
Evaluation on drug effect on nude mouse subcutaneous xenograft tumor model of NCI-H1975 cells: NCI-H1975 cells were inoculated subcutaneously in the right axilla of SPF-grade female nude mice (source: Jiangsu Huachuang Sino Pharmaceutical Technology Co., Ltd.) at 1×10^6 cells/mouse. When the mean tumor volume reached about 200 mm^3, the animals were grouped.
(§1) The day of grouping was defined as day 0, and intragastric administration was started on day 0 and performed once a day. The tumor volume was measured 2-3 times a week, meanwhile, the mice were weighed and the data were recorded; the general behavior of the mice was observed and recorded every day. After the experiment was completed, the tumors were removed, weighed, and photographed.
(§2) Tumor volume TV (mm^3)=½×(a×b^2),
(§3) Relative tumor volume RTV=TVt/TV0,
(§4) Relative tumor proliferation rate T/C (%)=(TRTV/CRTV)×100%,
(§5) Tumor growth inhibition rate TGI (%)=(1−TW/TW0)×100%;

The target of series [3] is EGFR (d746-750/T790M/C797S) (Homo sapiens (Human), UniProt P00533, C797S/DEL746-750/T790M). Put plainly: Inhibitory activity for EGFR (d746-750/T790M/C797S) kinase. Format: biochemical. The conditions noted are these: ATP 5 μM; read-out: EGFR(d19/T790M/C797S) (IC50). The essentials: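 EGFR d746-750/T790M/C797S (0.03 ng/μL final) preincubated 30 min with compound (10 nM–0.0024 nM, 4-fold, 7 points). Reaction with 5 μM ATP and 0.1 μM ULight-poly GT, 2 h at room temperature; EDTA stop, Eu-anti-phosphotyrosine TR-FRET read at 665 nm, IC50 by four-parameter fit.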
EGFR (d746-750/T790M/C797S), sequence (P00533 other isoform, or with tags, fused parts or gaps T790M/C797S/del 1-694/del 746-750 limits assumed): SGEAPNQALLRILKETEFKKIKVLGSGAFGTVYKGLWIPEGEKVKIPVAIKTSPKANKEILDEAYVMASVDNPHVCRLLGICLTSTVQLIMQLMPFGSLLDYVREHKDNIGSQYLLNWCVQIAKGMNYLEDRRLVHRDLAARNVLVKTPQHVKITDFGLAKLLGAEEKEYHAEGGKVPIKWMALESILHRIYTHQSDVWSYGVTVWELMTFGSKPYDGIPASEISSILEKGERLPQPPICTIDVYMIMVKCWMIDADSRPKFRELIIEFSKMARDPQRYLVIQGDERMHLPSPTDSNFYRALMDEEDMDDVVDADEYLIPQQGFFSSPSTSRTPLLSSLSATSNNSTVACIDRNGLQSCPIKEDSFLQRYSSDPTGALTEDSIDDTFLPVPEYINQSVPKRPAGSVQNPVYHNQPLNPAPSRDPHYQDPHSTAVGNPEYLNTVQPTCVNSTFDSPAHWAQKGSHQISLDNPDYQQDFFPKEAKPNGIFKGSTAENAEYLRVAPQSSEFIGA

For series [4], the system named is PC-9 EGFR-Del19-T790M-C797S cells. The experiment in a line: Inhibition of proliferation of PC-9-EGFR (Del19 T790M C797S) cells, CCK-8. In kind it is cell-based. The conditions noted are these: 72 h, read-out: PC-9-EGFR (Del19 T790M C797S) cell inhibitory activity IC50. The essentials:
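Cells seeded at 2×10^4 cells/mL were treated 72 h with compound at 1000 nM-0.06 nM final, in replicate wells. CCK-8 absorbance at 450 nm after 2 h gave inhibition rate relative to negative control and blank. IC50 from four-parameter fit against log concentration.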

In series [5] the test system is BAF3-EGFR (del19/T790M/C797S) cells. Put plainly: Inhibition of proliferation of BAF3-EGFR (Del19/T790M/C797S) cells, CCK-8. Format: cell-based. The conditions noted are these: Ba/F3 EGFR-Del19/T790M/C797S, 72 h, read-out: BAF3(EGFR T790M Del19 C797S) cell inhibitory activity IC50. The essentials:
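Cells seeded at 1.0×10^5 cells/mL in RPMI + 10% FBS, cultured overnight at 37° C, 5% CO2, then compound added in duplicate wells, with untreated cells as negative control. Inhibition rate calculated against negative-control and blank means. IC50 obtained from four-parameter fit of inhibition versus log concentration.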

Series [6] is described as follows: In vitro stability in liver microsomes. Format: in vitro ADME. The conditions noted are these: Human liver microsome. The procedure:
300 μL of the final incubation system contains 30 μL of liver microsomes (protein concentration: 0.15 mg/mL), 30 μL of NADPH+MgCl2, 3 μL of the test compound (in acetonitrile), and 237 μL of PBS buffer (pH 7.4). The proportion of the organic solvent (acetonitrile) was 1%. Samples were prepared in duplicate of 0.3 mL for each species (e.g., human or mouse liver microsomes). Tubes each containing 270 μL of a mixed solution of substrate and enzyme […] were pre-incubated at 37° C. for 5 min. 30 μL of NADPH+MgCl2 was added and the mixture was mixed. 50 μL of the mixture was taken at 0 min, 15 min, 30 min, and 60 min, and 300 μL of glacial acetonitrile containing an internal standard was added to terminate the reaction.
50 μL of the incubated sample was added with 300 μL of glacial acetonitrile containing an internal standard (20 ng/mL diazepam) for precipitation. The mixture was vortexed for 5 min, and centrifuged (12,000 rpm, 4° C.) for 10 min. 75 μL of supernatant was taken and diluted with 75 μL of ultrapure water. After being homogeneously mixed, 0.5 μL of the resulting sample was injected for analysis.
A general note: Microsomes from liver hold many membrane-bound enzymes, among them those of drug oxidation.

For series [7], the system named is PC9-EGFR (del19-T790M-C797S). Put plainly: Nude mouse subcutaneous xenograft tumor model of PC9-EGFR (del19-T790M-C797S) tumor mass. In kind it is in vivo, nude mice.
Text: Evaluation on drug effect on nude mouse subcutaneous xenograft tumor model of PC9-EGFR (del19-T790M-C797S) tumor mass: PC9-EGFR (del19-T790M-C797S) cells were inoculated subcutaneously in the right axilla of SPF-grade female nude mice (source: Laboratory Animal Operation Department, Shanghai Institute for Biomedical and Pharmaceutical Technologies) at 1×10^7 cells/mouse for the F1 generation. The nude mouse tumor tissue of the F1 generation was taken out, and the necrotic tissue was removed. Then the rest of the tumor tissue was cut into tumor masses of about 1.5-2 mm and inoculated subcutaneously in the right axilla of the nude mice. When the mean tumor volume reached about 200 mm^3, the animals were grouped.
as §1, §2, §3, §4, §5

Series [8] can be described thus: In vivo pharmacokinetics in ICR mice. The conditions noted are these: mouse, plasma, PO, 10 mg/kg intragastric. The essentials:
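ICR mice (18–20 g, 9 per group, fasted 12 h) received 10 mg/kg of compound intragastrically. Orbital blood was taken from 0 min to 24 h and EDTA-K2 plasma was prepared. Plasma was precipitated with acetonitrile containing diazepam as internal standard and analysed by LC/MS/MS.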

The mark [9] stands for this setting: 15 mpk*4 + 10 mpk*25 (i.g), 29 days.

pIC50: −log10 of the molar value.

EGFR (d746-750 (d19)/T790M), sequence (P00533 other isoform, or with tags, fused parts or gaps T790M/del 1-668/del 746-750 limits assumed): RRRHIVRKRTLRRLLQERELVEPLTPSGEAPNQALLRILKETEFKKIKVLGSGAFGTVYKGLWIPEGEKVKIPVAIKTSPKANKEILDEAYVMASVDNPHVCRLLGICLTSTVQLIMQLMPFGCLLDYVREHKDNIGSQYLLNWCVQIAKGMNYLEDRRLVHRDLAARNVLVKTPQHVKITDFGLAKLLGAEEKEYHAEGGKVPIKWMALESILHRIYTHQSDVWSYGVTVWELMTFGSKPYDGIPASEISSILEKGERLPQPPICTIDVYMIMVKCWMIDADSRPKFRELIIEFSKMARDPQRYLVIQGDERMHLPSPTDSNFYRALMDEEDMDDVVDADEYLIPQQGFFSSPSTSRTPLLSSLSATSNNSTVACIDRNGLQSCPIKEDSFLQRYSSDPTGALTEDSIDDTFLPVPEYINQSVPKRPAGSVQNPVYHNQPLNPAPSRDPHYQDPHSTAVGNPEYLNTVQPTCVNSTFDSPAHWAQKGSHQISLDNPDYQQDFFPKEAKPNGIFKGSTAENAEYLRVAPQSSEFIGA

Turning to `Cc1cc2cc(n1)-c1cnn(C)c1OCCC[C@@H](C1CC1)CN1/C(=N/C2=O)Nc2ccc(N(C)CCN(C)C)cc21` [Example 45], the pIC50 was 10.89 in [1]; > 8.30 in series [2]; 10.74 in series [3]; > 7.30 in series [4]; > 9.00 in series [5]. In addition, in the series on NCI-H1975(L858R T790M) (10 mpk (i.g)), the “Tumor growth inhibition % (tumor weight, d 14)” value was 76.2% (tumor. Further, in the series with NCI-H1975(L858R T790M) (10 mpk (i.g)), the “Tumor growth inhibition % (volume, d 12)” value stood at 76.6%.
As for `CCN1CCC(Nc2ccc3c(c2)N/C2=N\C(=O)c4cc(C)nc(c4)-c4cnn(C)c4OCCC[C@@H](C4CC4)CN23)CC1` [Example 48], the pIC50 in series [1] is 10.77; in series [2], > 8.30; in series [3], 10.57; in series [4] it was > 7.30; in series [5], > 9.00. Besides, the “Stability in liver microsomes (residual %, T = 60 min)” value in series [6] stood at 95.68%.
For the compound `Cc1cc2cc(n1)-c1cnn(C)c1OCCC[C@@H](C1CC1)CN1/C(=N/C2=O)Nc2ccc(N[C@@H](C)CN(C)C)cc21` [Example 66], the pIC50 in series [2] is > 8.30; in series [4], > 7.30; in [5], > 9.00. Moreover, the “Tumor growth inhibition % (tumor weight, d 14)” value with NCI-H1975(L858R T790M) (5 mpk (i.g)) is recorded as 73.5% (tumor; with NCI-H1975(L858R T790M) (10 mpk (i.g)), 87.5% (tumor. For the same compound, the “Tumor growth inhibition % (volume, d 12)” value in the series with NCI-H1975(L858R T790M) (5 mpk (i.g)) is recorded as 71.3%; with NCI-H1975(L858R T790M) (10 mpk (i.g)), 86.2%. In addition, the “Tumor growth inhibition % (tumor weight, d 29)” value in series [7] (setting [9]) was 95.8% (tumor weight, d 29); in series [7] (30 mpk*4 (i.g), 4 days) it was 56.5%. In addition, the “Tumor growth inhibition % (volume, d 27)” value in [7] (setting [9]) is given as 94.3% (volume, d 27); in [7] (30 mpk*4 (i.g), 4 days) it was 60.0% (volume, d 27). In addition, the AUC(0-inf) in series [8] was found to be 2200 ng·h/mL. Moreover, the exposure AUC(0-t) in [8] (read-out: AUC(0-t)) is 2040 ng·h/mL. Besides, the Cmax in [8] (read-out: Cmax) is 143 ng/mL. For the same compound, in series [8] (read-out: MRT(0-t)), the MRT last turned out to be 8.26 h. The time to peak (Tmax) in [8] (read-out: Tmax) stood at 6 h. The half-life in series [8] (read-out: T½ (converted)) is 5.98 h.
